Measurements as given in patent US12568972B2, “Pyridazinol compounds and derivatives, preparation methods, herbicidal compositions and applications thereof” (Qingdao Kingagroot Chemical Compound Co., Ltd., priority 2018, dated 2026).

Experiments:
Test in all cases: Post-emergence test, weed control effect
Assay type in all cases: in vivo
[1] = tested on: Amaranthus retroflexus; conditions: after 3 weeks
How it was run: (§1)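 Score 0-10 (10 = completely dead, 1 = below 20%, 0 = no effect) from fresh-weight growth inhibition, read 3 weeks after a post-emergence spray. Greenhouse pot plants at 2-3 leaves; spray solution acetone/Tween-80/water with 80% vegetable oil methyl ester synergist at 1500 g/ha.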

[2] = tested on: Chenopodiaceae; conditions: after 3 weeks; for inhibition at 150 g/ha / inhibition at 300 g/ha: 504 h, fresh weight inhibition, read-out: activity level of harmful plant destruction (growth inhibition rate), Chenopodiaceae
How it was run: as §1

[3] = tested on: Echinochloa crus-galli; conditions: 504 h, after 3 weeks, fresh weight inhibition, read-out: activity level of harmful plant destruction (growth inhibition rate), Echinochloa crus-galli
How it was run: as §1

[4] = tested on: Galium aparine; conditions: 504 h, after 3 weeks, fresh weight inhibition, read-out: activity level of harmful plant destruction (growth inhibition rate), Galium aparine
How it was run: as §1

[5] = tested on: Rorippa indica; conditions: after 3 weeks; for inhibition at 150 g/ha / inhibition at 300 g/ha: Rorippa indica, 504 h, fresh weight inhibition, read-out: activity level of harmful plant destruction (growth inhibition rate), Rorippa indica
How it was run: as §1

[6] = tested on: Setaria viridis; conditions: 504 h, after 3 weeks, fresh weight inhibition, read-out: activity level of harmful plant destruction (growth inhibition rate), Setaria viridis
How it was run: as §1

[7] = tested on: Veronica polita; conditions: after 3 weeks; for inhibition at 150 g/ha / inhibition at 300 g/ha: Veronica polita, 504 h, fresh weight inhibition, read-out: activity level of harmful plant destruction (growth inhibition rate), Veronica polita
How it was run: as §1

CCCCCCCCOC(=O)Oc1cc(C(F)(F)F)nnc1-c1ccc(F)cc1 [Compound 1-39]
weed control effect, Amaranthus retroflexus (activity level) ([1]; Dose 3000 g/ha): 10 | inhibition at 150 g/ha [2]: 100% | weed control effect, Chenopodiaceae (activity level) ([2]; Dose 3000 g/ha): 10 | inhibition at 150 g/ha [3]: 100% | inhibition at 150 g/ha [4]: 100% | weed control effect, Rorippa indica (activity level) ([5]; Dose 3000 g/ha): 10 | inhibition at 150 g/ha [5]: 100% | inhibition at 150 g/ha [6]: 100% | weed control effect, Veronica polita (activity level) ([7]; Dose 3000 g/ha): 10 | inhibition at 150 g/ha [7]: 100%

N#Cc1ccc(-c2nnc(C(F)(F)F)cc2OC(=O)c2ccc(Cl)cc2)cc1 [Compound 1-82]
weed control effect, Amaranthus retroflexus (activity level) ([1]; Dose 3000 g/ha): 10 | inhibition at 150 g/ha [2]: 100% | weed control effect, Chenopodiaceae (activity level) ([2]; Dose 3000 g/ha): 10 | inhibition at 150 g/ha [3]: 70 to 80% | inhibition at 150 g/ha [4]: 70 to 80% | weed control effect, Rorippa indica (activity level) ([5]; Dose 3000 g/ha): 10 | inhibition at 150 g/ha [5]: 100% | inhibition at 150 g/ha [6]: 100% | weed control effect, Veronica polita (activity level) ([7]; Dose 3000 g/ha): 10 | inhibition at 150 g/ha [7]: 80 to 90%

Oc1cc(C(F)(F)F)nnc1-c1cccnc1F [Compound 733]
weed control effect (activity level), Amaranthus retroflexus ([1]; dose 1000 g/ha): 10 | inhibition at 300 g/ha [2]: 100% | weed control effect (activity level), Chenopodiaceae ([2]; dose 1000 g/ha): 10 | inhibition at 300 g/ha [3]: 100% | inhibition at 300 g/ha [4]: 100% | inhibition at 300 g/ha [5]: 100% | weed control effect (activity level), Rorippa indica ([5]; dose 1000 g/ha): 10 | inhibition at 300 g/ha [6]: 100% | inhibition at 300 g/ha [7]: 100% | weed control effect (activity level), Veronica polita ([7]; dose 1000 g/ha): 10

Oc1cc(C(F)(F)F)nnc1-c1ccc(C(F)(F)F)cc1F [Compound 51]
weed control effect (activity level), Amaranthus retroflexus ([1]; dose 1000 g/ha): 10 | inhibition at 300 g/ha [2]: 100% | weed control effect (activity level), Chenopodiaceae ([2]; dose 1000 g/ha): 10 | inhibition at 300 g/ha [3]: 60 to 70% | inhibition at 300 g/ha [4]: 80 to 90% | inhibition at 300 g/ha [5]: 100% | weed control effect (activity level), Rorippa indica ([5]; dose 1000 g/ha): 10 | inhibition at 300 g/ha [6]: 90 to 100% | inhibition at 300 g/ha [7]: 90 to 100% | weed control effect (activity level), Veronica polita ([7]; dose 1000 g/ha): 10

Oc1cc(C(F)(F)F)nnc1-c1cccnc1 [Compound 202]
weed control effect (activity level), Amaranthus retroflexus ([1]; dose 2000 g/ha): 10 | inhibition at 300 g/ha [2]: 100% | weed control effect (activity level), Chenopodiaceae ([2]; dose 2000 g/ha): 10 | inhibition at 300 g/ha [3]: 70 to 80% | inhibition at 300 g/ha [4]: 100% | inhibition at 300 g/ha [5]: 100% | weed control effect (activity level), Rorippa indica ([5]; dose 2000 g/ha): 10 | inhibition at 300 g/ha [6]: 100% | inhibition at 300 g/ha [7]: 80 to 90% | weed control effect (activity level), Veronica polita ([7]; dose 2000 g/ha): 10

N#Cc1ccccc1C(=O)Oc1cc(C(F)(F)F)nnc1-c1ccc(F)c(F)c1 [Compound 1-86]
weed control effect, Amaranthus retroflexus (activity level) ([1]; Dose 3000 g/ha): 10 | inhibition at 150 g/ha [2]: 100% | weed control effect, Chenopodiaceae (activity level) ([2]; Dose 3000 g/ha): 10 | inhibition at 150 g/ha [3]: 100% | inhibition at 150 g/ha [4]: 100% | weed control effect, Rorippa indica (activity level) ([5]; Dose 3000 g/ha): 10 | inhibition at 150 g/ha [5]: 100% | inhibition at 150 g/ha [6]: 100% | weed control effect, Veronica polita (activity level) ([7]; Dose 3000 g/ha): 10 | inhibition at 150 g/ha [7]: 100%

Oc1cc(C(F)(F)F)nnc1-c1cnc(F)c(Cl)c1 [Compound 1000]
weed control effect (activity level), Amaranthus retroflexus ([1]; Dose 3000 g/ha): 10 | inhibition at 300 g/ha [2]: 100% | weed control effect (activity level), Chenopodiaceae ([2]; Dose 3000 g/ha): 10 | inhibition at 300 g/ha [3]: 100% | inhibition at 300 g/ha [4]: 100% | weed control effect (activity level), Rorippa indica ([5]; Dose 3000 g/ha): 10 | inhibition at 300 g/ha [5]: 100% | inhibition at 300 g/ha [6]: 100% | weed control effect (activity level), Veronica polita ([7]; Dose 3000 g/ha): 10 | inhibition at 300 g/ha [7]: 100%

Oc1cc(C(F)(F)F)nnc1-c1ccc(F)nc1 [Compound 207]
weed control effect (activity level), Amaranthus retroflexus ([1]; dose 2000 g/ha): 10 | inhibition at 300 g/ha [2]: 100% | weed control effect (activity level), Chenopodiaceae ([2]; dose 2000 g/ha): 10 | inhibition at 300 g/ha [3]: 100% | inhibition at 300 g/ha [4]: 100% | inhibition at 300 g/ha [5]: 100% | weed control effect (activity level), Rorippa indica ([5]; dose 2000 g/ha): 10 | inhibition at 300 g/ha [6]: 100% | inhibition at 300 g/ha [7]: 100% | weed control effect (activity level), Veronica polita ([7]; dose 2000 g/ha): 10

Oc1cc(C(F)(F)F)nnc1-c1cnn(C(F)F)c1 [Compound 844]
weed control effect (activity level), Amaranthus retroflexus ([1]; dose 2000 g/ha): 10 | inhibition at 150 g/ha [2]: 100% | weed control effect (activity level), Chenopodiaceae ([2]; dose 2000 g/ha): 10 | inhibition at 150 g/ha [3]: 100% | inhibition at 150 g/ha [4]: 100% | inhibition at 150 g/ha [5]: 100% | weed control effect (activity level), Rorippa indica ([5]; dose 2000 g/ha): 10 | inhibition at 150 g/ha [6]: 100% | inhibition at 150 g/ha [7]: 100% | weed control effect (activity level), Veronica polita ([7]; dose 2000 g/ha): 10

Oc1cc(C(F)(F)F)nnc1-c1ccc(Cl)cc1 [Compound 739]
weed control effect (activity level), Amaranthus retroflexus ([1]; Dose 3000 g/ha): 10 | inhibition at 300 g/ha [2]: 100% | weed control effect (activity level), Chenopodiaceae ([2]; Dose 3000 g/ha): 10 | inhibition at 300 g/ha [3]: 100% | inhibition at 300 g/ha [4]: 80 to 90% | weed control effect (activity level), Rorippa indica ([5]; Dose 3000 g/ha): 10 | inhibition at 300 g/ha [5]: 100% | inhibition at 300 g/ha [6]: 100% | weed control effect (activity level), Veronica polita ([7]; Dose 3000 g/ha): 10 | inhibition at 300 g/ha [7]: 100%
